Data from ChEMBL document CHEMBL1124168 (J Med Chem, 1988).

Legend:
Rattus norvegicus [1] = assay: […] antagonist activity was measured by dose required to lower urine osmolality to 300 mOsm/kg of H2O; type: functional
Canis familiaris [2] = assay: Agonist activity was measured as maximum urine osmolality with a dose of 100 ug/kg peptide after pretreatment with indomethacin in dog
Canis familiaris [3] = assay: Antagonist activity was measured by maximum urine flow with a dose of 100 ug/kg peptide; type: functional, Canis lupus familiaris
Vasopressin V2 receptor [4] = biological target: Vasopressin V2 receptor (Homo sapiens, UniProt P30518); assay: In vitro antagonist activity was measured by inhibition of vasopressin-stimulated adenylate cyclase in renal medullary preparation in human; type: functional, tissue-based, Renal medulla
Rattus norvegicus [5] = assay: […] antagonist activity is measured by dose required to lower urine osmolality to 300 mOsm/kg of H2O; type: functional
Sus scrofa = species: Sus scrofa; assay: (§1) In vitro antagonist activity was measured by inhibition of binding of [3H]LVP to renal medullary membrane preparation in pig; type: functional; settings: Renal medulla
Vasopressin V2 receptor [6] = biological target: Vasopressin V2 receptor (Sus scrofa, UniProt P32307); assay: In vitro antagonist activity was measured by inhibition of vasopressin-stimulated adenylate cyclase in renal medullary preparation in pig; type: functional, tissue-based, Renal medulla
Canis familiaris [7] = assay: Antagonist activity was measured by maximum urine osmolality with a dose of 100 ug/kg peptide after pretreatment with indomethacin in dog; type: functional, Canis lupus familiaris
[8] = biological target: Vasopressin V2 receptor (Sus scrofa) (UniProt P32307); assay: as §1; type: tissue-based; settings: Renal medulla
Adenylate cyclase = assay: In vitro antagonist activity was measured by inhibition of vasopressin-stimulated adenylate cyclase in renal medullary preparation in human
Canis familiaris [9] = assay: Antagonist activity was measured by maximum urine osmolality with a dose of 100 ug/kg peptide after pretreatment with indomethacin ([…]) in dog; type: functional, Canis lupus familiaris

Vasopressin V2 receptor (Sus scrofa, UniProt P32307), sequence (P32307 whole entry): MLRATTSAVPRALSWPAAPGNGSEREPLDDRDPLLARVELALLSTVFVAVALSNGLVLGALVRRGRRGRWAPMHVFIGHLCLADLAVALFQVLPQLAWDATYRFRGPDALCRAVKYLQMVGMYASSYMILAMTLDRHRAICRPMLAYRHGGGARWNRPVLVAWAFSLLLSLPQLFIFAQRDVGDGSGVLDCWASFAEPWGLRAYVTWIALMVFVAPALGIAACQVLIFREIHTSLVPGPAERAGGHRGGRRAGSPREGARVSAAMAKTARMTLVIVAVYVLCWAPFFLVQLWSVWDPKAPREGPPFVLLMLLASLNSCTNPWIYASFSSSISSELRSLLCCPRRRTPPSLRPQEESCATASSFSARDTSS
Vasopressin V2 receptor (Homo sapiens, UniProt P30518), sequence (P30518 whole entry): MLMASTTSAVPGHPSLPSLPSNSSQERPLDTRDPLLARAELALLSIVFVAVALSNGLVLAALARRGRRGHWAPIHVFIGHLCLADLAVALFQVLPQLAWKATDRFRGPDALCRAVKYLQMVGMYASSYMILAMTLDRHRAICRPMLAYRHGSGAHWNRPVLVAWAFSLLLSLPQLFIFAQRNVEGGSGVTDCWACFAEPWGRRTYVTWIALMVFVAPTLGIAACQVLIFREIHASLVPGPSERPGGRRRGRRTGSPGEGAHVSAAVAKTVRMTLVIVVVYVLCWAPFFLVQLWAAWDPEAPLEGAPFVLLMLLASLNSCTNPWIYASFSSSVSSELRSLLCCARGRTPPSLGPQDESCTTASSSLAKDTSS
Vasopressin V2 receptor (Sus scrofa), sequence (P32307 whole entry): as the sequence (P32307 whole entry) above

SMILES	Ki (Vasopressin V2 receptor [4]) [nM]	Kb (Sus scrofa) [nM]	ED300 (Rattus norvegicus [1]) [µg/kg]	Volume (Canis familiaris [3]) [mL/min]	U osm (Canis familiaris [7]) [mOsmol kg-1]	further results
CCOc1ccc(C[C@H]2NC(=O)CC3(CCCCC3)CCC[C@@H](C(=O)N3CCC[C@H]3C(=O)N[C@@H](CCCN=C(N)N)C(N)=O)NC(=O)[C@H](CC(N)=O)NC(=O)[C@H](C(C)C)NC(=O)[C@H](Cc3ccccc3)NC2=O)cc1 [listing 1 of 2 here]			12.2	0.69		U osm (Canis familiaris [2]): 319 mOsmol kg-1
COc1ccc2c(c1)c(CC(=O)O)c(C)n2C(=O)c1ccc(Cl)cc1 [INDOMETHACIN]				2.8	92	
CCOc1ccc(C[C@H]2NC(=O)CC3(CCCCC3)SSCC(C(=O)N3CCC[C@@H]3C(=O)N[C@@H](CCCN=C(N)N)C(N)=O)NC(=O)[C@H](CC(N)=O)NC(=O)[C@H](C(C)C)NC(=O)[C@H](Cc3ccccc3)NC2=O)cc1 (some centres not stated)		11.8				
CCOc1ccc(C[C@H]2NC(=O)CC3(CCCCC3)SSC[C@@H](C(=O)N3CCC[C@H]3C(=O)N[C@@H](CCCN=C(N)N)C(N)=O)NC(=O)[C@H](CC(N)=O)NC(=O)[C@H](C(C)C)NC(=O)[C@H](Cc3ccccc3)NC2=O)cc1			8.4	0.07	1302	
CCOc1ccc(C[C@H]2NC(=O)CC3(CCCCC3)CCCC(C(=O)N[C@@H](CCCN=C(N)N)C(N)=O)NC(=O)[C@H](CC(N)=O)NC(=O)[C@H](C(C)C)NC(=O)[C@H](Cc3ccccc3)NC2=O)cc1 (some centres not stated)						Kb [8]: 14 nM; ED300 (Rattus norvegicus [5]): 28 µg/kg; Ki (Adenylate cyclase): 4.4 nM
CCOc1ccc(C[C@H]2NC(=O)CC3(CCCCC3)CCC[C@@H](C(=O)N3CCC[C@H]3C(=O)N[C@@H](CCCN=C(N)N)C(N)=O)NC(=O)[C@H](CC(N)=O)NC(=O)[C@H](C(C)C)NC(=O)[C@H](Cc3ccccc3)NC2=O)cc1 [listing 2 of 2 here]	2.7					Ki (Vasopressin V2 receptor [6]): 3.5 nM
CCOc1ccc(C[C@H]2NC(=O)CC3(CCCCC3)CCCC(C(=O)N3CCC[C@@H]3C(=O)N[C@@H](CCCN=C(N)N)C(N)=O)NC(=O)[C@H](CC(N)=O)NC(=O)[C@H](C(C)C)NC(=O)[C@H](Cc3ccccc3)NC2=O)cc1 (some centres not stated)		7.1				
N=C(N)NCCC[C@H](NC(=O)[C@@H]1CCCN1C(=O)[C@@H]1CSSC[C@H](N)C(=O)N[C@@H](Cc2ccc(O)cc2)C(=O)N[C@@H](Cc2ccccc2)C(=O)N[C@@H](CCC(N)=O)C(=O)N[C@@H](CC(N)=O)C(=O)N1)C(=O)NCC(N)=O [VASOPRESSIN]				1.4		U osm (Canis familiaris [9]): 939 mOsmol kg-1

The next lines start with results.

Ki (Vasopressin V2 receptor [4]) [nM]	Kb (Sus scrofa) [nM]	SMILES	ED300 (Rattus norvegicus [1]) [µg/kg]	Volume (Canis familiaris [3]) [mL/min]	U osm (Canis familiaris [7]) [mOsmol kg-1]	further results
1.5	10.2	CCOc1ccc(C[C@H]2NC(=O)CC3(CCCCC3)SSCC(C(=O)N[C@@H](CCCN=C(N)N)C(N)=O)NC(=O)[C@H](CC(N)=O)NC(=O)[C@H](C(C)C)NC(=O)[C@H](Cc3ccccc3)NC2=O)cc1 (some centres not stated)				ED300 (Rattus norvegicus [5]): 58 µg/kg; Ki (Vasopressin V2 receptor [6]): 2.9 nM
3.9	5.1	CCOc1ccc(C[C@H]2NC(=O)CC3(CCCCC3)CCCC(C(=O)N[C@@H](CCCN=C(N)N)C(=O)N[C@H](CCCN=C(N)N)C(N)=O)NC(=O)[C@H](CC(N)=O)NC(=O)[C@H](C(C)C)NC(=O)[C@H](Cc3ccccc3)NC2=O)cc1 (some centres not stated)	9	4.6	56	
2.4	5.4	CCOc1ccc(C[C@H]2NC(=O)CC3(CCCCC3)SSCC(C(=O)N[C@@H](CCCN=C(N)N)C(=O)N[C@H](CCCN=C(N)N)C(N)=O)NC(=O)[C@H](CC(N)=O)NC(=O)[C@H](C(C)C)NC(=O)[C@H](Cc3ccccc3)NC2=O)cc1 (some centres not stated)	13.5	0.76	429	Ki (Vasopressin V2 receptor [6]): 1.6 nM
